The values below are quoted from earlier work in patent US20210154215A1, “Antifungal Cuticle Oil Composition” (Zenvision Pharma LLP, priority 2018, published 2021).

As for `C=C1CCN([C@H](C)[C@](O)(Cn2cncn2)c2ccc(F)cc2F)CC1` [Efinaconazole, (2R,3R)-2-(2,4-difluorophenyl)-3-(4-methylenepiperidin-1yl)-1-(1H-1,2,4-triazol-1-yl)butan-2ol], the Solubility in water result is recorded as “practically insoluble”.
In the case of `OB1OCc2cc(F)ccc21` [Tavaborole, 5-fluoro-1,3-dihydro-1-hydroxy-2,1-benzoxaborole], the Solubility in ethanol result was “freely soluble” and the Solubility in water result is “slightly soluble”. Further, under “propylene glycol”, the “Solubility in propylene glycol” value is “freely soluble”.
With `CN(C/C=C/C#CC(C)(C)C)Cc1cccc2ccccc12.Cl` [Terbinafine hydrochloride, (E)-N-(6,6-dimethyl-2-hepten-4-ynyl)-N-methyl-1-naphthalenemethanamine hydrochloride], the Solubility in ethanol entry is recorded as “soluble” and the Solubility in water entry is on record as “slightly soluble”. Also, under “methanol”, the Solubility in methanol entry was “freely soluble”. Further, the “Solubility in methylene chloride” value (methylene chloride) is on record as “freely soluble”.
